Source: US9809562B2, “NAT10 modulators for treating or preventing laminopathies, aging and cancer” (CAMBRIDGE ENTERPRISE LIMITED, priority 2014, dated 2017)
Structures can show the parent of a compound that is named as a salt.

Legend:
[1] = tested on: farnesyltransferase activity (pre-Lamin A cleavage and maturation); assay: Lamin A processing by western blotting; format: cell-based, human
Method: (§1) The following KAT and KDAC inhibitors were used in the nuclear shape rescue screen, incubating cells with the molecules for 16 hours: trichostatin A (1 μM), sodium butyrate (5 mM), tubacin (10 μM), SAHA (5 μM), curcumin (10 μM), garcinol (50 μM), anacardic acid (1 μM), MB-3 (5 μM), 4-(4-chlorophenyl)-2-(2-cyclopentylidenehydrazinyl)thiazole (Compound 2) (50 μM), 4-(4-chlorophenyl)-2-(2-cyclopentylidene-1-(prop-2-yn-1-yl)hydrazinyl)thiazole (Compound 3) (50 μM) and cyclopentylidene-[4-(4-cyanophenyl)thiazol-2-yl)hydrazine (Compound 1) (Remodelin) (10 to 50 μM). For HGPS cellular fitness assays, Remodelin was incubated at 1 μM for 1 to 10 days, renewing the medium every 3 days. For long-term senescence assay, cells were kept and passaged in medium containing 1 μM Remodelin or DMSO only for 12 population doublings. Senescence was assessed after 8 days of Remodelin treatment when cells were at Population Doubling 12, and then after several weeks of Remodelin treatment, when cells reached Population Doubling 24 using the Senescence β-Galactosidase Staining Kit #9860 from Cell Signaling. […]
Total cell extracts were prepared by scraping cells in SDS lysis buffer (4% SDS, 20% glycerol, and 120 mM Tris-HCl, pH 6.8), boiling for 5 minutes at 95° C., followed by 10 strokes through a 25-gauge needle. […] Detection and quantification was performed with an imager (Odyssey; LI-COR Biosciences).

HGPS cells = assay: Chromatin, nucleolar and SUN1 organization in HGPS cells (IF); format: cell-based, human; conditions: Remodelin 1 μM
Method: as §1, with “Signaling. Nocodazole, colchicine and latrunculin A (Sigma-Aldrich) were used at 200 ng/ml, 1 μg/ml and 1 μM respectively. Aphidicolin (Sigma-Aldrich) was used at 5 μg/ml for 16 h. Farnesyltransferase inhibitor FTI-277 was purchased from Tocris Bioscience and used at 5 μM.” for “Signaling.”

[2] = tested on: cells (sub-cellular distribution); assay: Fluorescent labelling of clickable molecules (sub-cellular distribution); format: cell-based; conditions: 2 hours pre-incubation, Alexa fluor 488 Azide click
Method: Cells were pre-incubated with clickable molecules Compound 3 or Reference Compound A (1-Chloro-4-ethynilbenzene, purchased from Sigma-Aldrich) for 2 hours before being fixed and permeabilised as described above. Click reaction was prepared using Invitrogen Click-iT reagents with Alexa fluor 488 Azide and incubated with fixed cells for 1 hour in the dark. In case of co-labelling with another protein, the click reaction was performed before the antibody incubations.

[3] = tested on: HGPS mice (Lmna^G609G/G609G); assay: Survival in mouse model of Hutchinson Gilford progeria syndrome; format: in vivo; conditions: daily oral dose of 100 mg/kg/day from 3 weeks of age, vs vector only, n=10
Method: Middle panel of FIG. 25: HGPS mice were treated with a daily oral dose of 100 mg/kg/day of Compound 2 from 3 weeks of age and until culled due to >20% body weight loss. […] Right panel of FIG. 25: Global survival of HGPS mice (Lmna^G609G/G609G) treated with vector only (Lmna^G609G/G609G V) or with Compound 2 (Lmna^G609G/G609G2) showing a significant increase of the median survival of mice upon Compound 2 treatment (+25%). Number of mice/group n=10.

[4] = tested on: LMNA knock out (KO) U2OS cell line; assay: Cell growth of LMNA KO versus LMNA WT U2OS cells (IncuCyte ZOOM); format: cell-based, human; conditions: U2OS, CripR/Cas9 LMNA KO
From the text: LMNA knock out (KO) U2OS cell line was engineered using CripR/Cas9 technology. The sensitivity of LMNA KO cells to Compound 2 was compared to cells expressing wild type LMNA (LMNA WT). Cell growth was monitored automatically over time using an IncuCyte ZOOM®. The results are shown in FIG. 21 which has been split into two graphs for easier reading of the curves.

Normal fibroblasts = assay: Microarray gene expression, normal fibroblasts; format: cell-based, human; conditions: 1 μM, 12 population doublings
Method: Normal fibroblasts or HGPS fibroblasts were kept in culture for 12 population doublings with chronic treatment of 1 μM Compound 2 (top panels of FIG. 29) or transfected with siRNA against NAT10 for 3 days (bottom panels of FIG. 29). RNA was extracted and global gene expression was analysed by microarray. Volcano plots show a very high specificity of Compound 2 towards gene expression regulation of HGPS cells, with about 1000 genes affected more than 2 fold, whereas only 24 genes were affected in normal fibroblasts.

Structure (SMILES): N#Cc1ccc(-c2csc(NN=C3CCCC3)n2)cc1 [Compound 1, 4-(4-Cyanophenyl)-2-(2-cyclopentylidenehydrazinyl)thiazole]
- pre-Lamin A processing [1]: did not block pre-Lamin A cleavage and maturation
- SUN1 accumulation at the nuclear envelope (HGPS cells): decreased SUN1 accumulation at the nuclear envelope
- chromatin and nucleolar organization (H3K9me3 and NAT10 staining) (HGPS cells): improved chromatin and nucleolar organization

Structure (SMILES): C#CCN(N=C1CCCC1)c1nc(-c2ccc(Cl)cc2)cs1 [Compound 3, 4-(4-Chlorophenyl)-2-(2-cyclopentylidene-1-(prop-2-yn-1-yl)hydrazinyl)thiazole]
- sub-cellular distribution of fluorescently labelled molecule [2]: predominant accumulation of Compound 3 in nucleoli

Structure (SMILES): Clc1ccc(-c2csc(NN=C3CCCC3)n2)cc1 [Compound 2, 4-(4-Chlorophenyl)-2-(2-cyclopentylidenehydrazinyl)thiazole Hydrochloride Salt]
- increase of the median survival [3]: +25%
- cell growth inhibition of LMNA KO versus LMNA WT cells [4]: specificity of Compound 2 towards inhibiting cell growth of LMNA KO cells
- number of genes affected (Normal fibroblasts): 24 genes
